According to EP0460690A2, “Use of phenolsulfophthaline derivatives for the treatment of osteoporosis” (THE GREEN CROSS CORPORATION, priority 1990, dated 1991):

Experiments:
[1] = system: rats suffering from osteoporosis; test: Bone mass increase in osteoporosis rats (ovariectomy and sciatic nerve excision); assay type: in vivo, Wister female rats; conditions: thigh bone, oral 100 µg/kg body weight everyday in 5 % Tween 20, after 12 weeks; for Bone Mass Ash wt./unit vol.: carrier 370 ± 19, normal rats 387 ± 16; for Bone Mass Dry wt./unit vol.: carrier 821 ± 15, normal rats 976 ± 11
Text: The effects of the phenolsulfophthalein compounds of the present invention of increasing bone mass were examined by using rats suffering from osteoporosis.
Wister female rats aged 7 to 8 months (8 rats per group) were subjected to ovariectomy and sciatic nerve excision to thereby cause osteoporosis. Starting from the next day after the operation, compound 1, as described above, and compound 2 (represented by formula (I), wherein R¹ and R² are both acetyl groups) each dispersed in 5 % Tween 20 were orally administered in a dose of 100 µg/kg body weight everyday. After 12 weeks, the thigh bones of the animals were collected and the volume, dry weight and ash weight were measured. Thus the dry weight and ash weight per unit volume were determined.

Wister female rats = test: Acute toxicity, oral administration; assay type: in vivo; conditions: dispersed in 5 % Tween 20, eight rats, dose of 1 g/kg body weight
Text: Compound 1 dispersed in 5 % Tween 20 was orally administered to eight Wister female rats aged 7 to 8 months.

[2] = target: T1, estrogen receptor in mastocarcinoma (Homo sapiens, UniProt P03372); conditions: literature report; cited from earlier work
T1 construct: host or cells: mastocarcinoma
T1 sequence (P03372 1-595): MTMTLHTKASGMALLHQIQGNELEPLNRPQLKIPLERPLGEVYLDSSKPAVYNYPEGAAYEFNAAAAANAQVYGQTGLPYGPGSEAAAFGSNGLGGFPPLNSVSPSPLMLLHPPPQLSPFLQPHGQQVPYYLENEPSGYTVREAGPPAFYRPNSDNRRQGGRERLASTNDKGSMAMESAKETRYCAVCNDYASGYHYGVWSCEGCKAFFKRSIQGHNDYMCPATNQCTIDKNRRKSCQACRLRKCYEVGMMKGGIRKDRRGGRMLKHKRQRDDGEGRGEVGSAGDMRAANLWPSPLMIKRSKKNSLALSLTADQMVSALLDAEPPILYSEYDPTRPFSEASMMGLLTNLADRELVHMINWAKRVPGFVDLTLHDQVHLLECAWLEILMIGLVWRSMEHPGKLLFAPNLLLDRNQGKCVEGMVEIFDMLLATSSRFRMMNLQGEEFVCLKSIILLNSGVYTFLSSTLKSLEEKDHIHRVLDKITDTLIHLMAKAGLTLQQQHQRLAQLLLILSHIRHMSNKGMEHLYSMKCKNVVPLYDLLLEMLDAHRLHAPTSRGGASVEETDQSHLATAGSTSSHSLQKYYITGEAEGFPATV

SMILES	Bone Mass Ash wt./unit vol. [1] [mg/mL]	Bone Mass Dry wt./unit vol. [1] [mg/mL]	mortality (acute toxicity) (Wister female rats)	binding to estrogen receptor [2]
CC(=O)Oc1ccc(C(c2ccc(OC(C)=O)cc2)c2ccccc2S(=O)(=O)Oc2ccccc2)cc1 [compound 2]	383 ± 14	856 ± 15	–	–
O=S(=O)(Oc1ccccc1)c1ccccc1C(c1ccc(O)cc1)c1ccc(O)cc1 [compound 1]	385 ± 12	861 ± 12	no animal died	–
O=S(=O)(Oc1ccccc1)c1ccccc1C(c1ccc(O)cc1)c1ccc(O)cc1 [drawing 1]	–	–	–	binding to an estrogen receptor
